In paper PMC3206016, “Putting into Practice Domain-Linear Motif Interaction Predictions for Exploration of Protein Networks” (PLoS ONE, 2011):
Peptide text beside a SMILES is read from it. * marks the point of attachment. Biotin = O=C1N[C@H]2[C@H](CS[C@H]2CCCCC(=O)*)N1

Columns and labels:
Assay in all cases: SPR binding of MBP-PDZ analyte to immobilised biotinylated peptides
Settings in all cases: for norm. RU at 10 µM: SPR Req at 10 µM MBP-PDZ, normalised for analyte molecular weight and immobilised ligand
[1] = target: T1, MAGI1-2/6 PDZ domain (Mus musculus, UniProt Q6RHR9)
T1 construct: The cDNA encoding residues 448–572 and 613–752 of mouse MAGI-1 (UniProt acc.: Q6RHR9-1) encoding for MAGI1-2/6; made in house; host or cells: E. coli BL21 DE3
Description: (§1) We opted for the surface plasmon resonance (SPR) method to measure these 190 (19 proteins×2 peptide versions×5 PDZ constructs) interactions. In SPR various concentrations of “analytes” (here, PDZ domains fused to the Maltose Binding Protein (MBP)) flow over surfaces presenting attached “ligands” (here, biotinylated peptides). The amount of analyte interacting with the ligand is measured and quantified in response units (RU). The intensity of this signal is proportional to the binding strength of the assayed interaction (Figure 5A). K [drawing 13] were obtained using a 1∶1 interaction model. However, these calculated K [drawing 14] were rather inaccurate especially for weak interactions. Therefore, we preferred to rank the binding strengths of the 190 interactions using normalised RU signals at equilibrium ( [drawing 15] ) rather than K [drawing 16] (see Methods for details). These normalised [drawing 17] values were plotted in form of a heat map (Figure 5B).
(§2) The cDNA encoding residues 448–572 and 613–752 of mouse MAGI-1 (UniProt acc.: Q6RHR9-1) encoding for MAGI1-2/6 (100% identical to human MAGI1-2/6) and MAGI1-3/6 (99% identical to human MAGI1-3/6) PDZ domains, respectively, were inserted into the NcoI/KpnI sites of the pETM-41 expression vector (EMBL) containing a 6×His-MBP tag followed by a TEV protease cleavage site. A similar cloning strategy was adopted for cDNA bearing residues 997–1093, 1097–1193 and 997–1193 of human SCRIB (Uniprot acc.: Q14160-1) encoding for SCRIB-3/4, SCRIB-4/4 PDZ domains and SCRIB-34/4 tandem PDZ construct, respectively.
(§3) Data were collected on a Biacore 2000 instrument (Biacore AB/GE Healthcare Bio-Sciences Corp., Piscataway, NJ, USA) at 25 [drawing 74] C. SPR experiments (ligand immobilisation and binding measurements) have been performed as described in Fournane et al.. Briefly, biotinylated peptides (instead of GST-fused recombinant peptides) were immobilised on CM5 sensorchips on which Neutravidin was previously attached. The MBP-PDZ domain analyte was injected at 8 to 10 different concentrations ranging from 0 up to 30 [drawing 75] M. Data were processed using the BiaEvaluation 3.2 software (Biacore AB/GE Healthcare Bio-Sciences Corp.) using “double referencing” [78] in which sensorgrams were corrected for buffer effects and bulk refractive index changes.
(§4) The steady-state binding signal ( [drawing 76] ) was derived by averaging the signals in a five second window at equilibrium. Steady-state analysis was performed by fitting the average signal [drawing 77] as a function of total MBP-PDZ concentrations, assuming a simple 1∶1 interaction binding isotherm model. […] Reasons for this inaccuracy are likely to be the following: 1. As previously described, several repetitions of all the measurements are required to determine accurate K [drawing 81] . In our case, such repetitions were not achievable in reasonable time due to the large amount of interactions measured in this study. 2. The highest injected analyte concentration restricts the maximal K [drawing 82] (weakest interaction) that can be accurately obtained. 3. A K [drawing 83] is estimated based on a mathematical extrapolation of observed [drawing 84] signals leading to additional uncertainty. Based on these reasons, we considered the calculated K [drawing 85] not as accurate enough to be used for absolute binding strength comparison in this study. We rather performed a relative analysis of binding strengths using directly [drawing 86] signals which are not biased by any mathematical assumption. We focussed on [drawing 87] signals obtained at 10 [drawing 88] M MBP-PDZ concentration, which have been systematically measured in duplicate. The [drawing 89] signal is directly proportional to the molecular weight of the analyte and the amount of immobilised ligand. Therefore, the [drawing 90] signals were normalised taking those into account before being used for binding strength comparison. […]

[2] = target: T2, MAGI1-3/6 PDZ domain (Mus musculus, UniProt Q6RHR9)
T2 construct: The cDNA encoding residues 448–572 and 613–752 of mouse MAGI-1 (UniProt acc.: Q6RHR9-1); made in house; host or cells: E. coli BL21 DE3
Description: as §1, §2, §3, §4

[3] = target: T3, SCRIB-3/4 PDZ domain (Homo sapiens, UniProt Q14160)
T3 construct: cDNA bearing residues 997–1093, 1097–1193 and 997–1193 of human SCRIB (Uniprot acc.: Q14160-1); made in house; host or cells: E. coli BL21 DE3
T3 sequence (Q14160 997-1093 isoform Q14160-1): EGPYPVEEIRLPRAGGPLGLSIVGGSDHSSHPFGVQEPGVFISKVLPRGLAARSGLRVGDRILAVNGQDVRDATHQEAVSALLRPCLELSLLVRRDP
Description: as §1, §2, §3, §4

[4] = target: T4, SCRIB-34/4 tandem PDZ construct (Homo sapiens, UniProt Q14160)
T4 construct: residues 997–1093, 1097–1193 and 997–1193 of human SCRIB (Uniprot acc.: Q14160-1); made in house; host or cells: E. coli BL21 DE3
T4 sequence (Q14160 997-1193 isoform Q14160-1): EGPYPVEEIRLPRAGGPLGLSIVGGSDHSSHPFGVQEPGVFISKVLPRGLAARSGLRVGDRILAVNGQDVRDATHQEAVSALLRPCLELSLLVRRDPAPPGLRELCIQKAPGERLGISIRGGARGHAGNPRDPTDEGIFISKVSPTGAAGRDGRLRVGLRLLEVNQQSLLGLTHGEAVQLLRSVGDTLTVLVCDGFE
Description: as §1, §2, §3, §4

[5] = target: T5, SCRIB-4/4 PDZ domain (Homo sapiens, UniProt Q14160)
T5 construct: residues 997–1093, 1097–1193 and 997–1193 of human SCRIB (Uniprot acc.: Q14160-1); made in house; host or cells: E. coli BL21 DE3
T5 sequence (Q14160 1097-1193 isoform Q14160-1): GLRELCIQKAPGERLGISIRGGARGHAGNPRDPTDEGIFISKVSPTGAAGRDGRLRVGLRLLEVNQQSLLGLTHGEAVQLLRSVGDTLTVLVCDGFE
Description: as §1, §2, §3, §4

[6] = tentative KD, SPR Biacore 2000, 25 C, steady state, 1:1 binding isotherm, MBP-PDZ 0-30 µM, to be considered with caution

T1 sequence (Q6RHR9 448-572): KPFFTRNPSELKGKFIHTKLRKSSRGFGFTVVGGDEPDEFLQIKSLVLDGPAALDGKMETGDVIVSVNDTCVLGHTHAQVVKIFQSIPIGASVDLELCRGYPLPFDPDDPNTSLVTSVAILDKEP
T2 sequence (Q6RHR9 613-752): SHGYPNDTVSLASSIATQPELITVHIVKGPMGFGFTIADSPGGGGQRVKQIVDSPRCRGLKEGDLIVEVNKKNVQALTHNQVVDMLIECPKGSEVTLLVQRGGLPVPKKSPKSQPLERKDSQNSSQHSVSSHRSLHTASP

| norm. RU at 10 µM [1] [RU] | norm. RU at 10 µM [2] [RU] | norm. RU at 10 µM [3] [RU] | norm. RU at 10 µM [4] [RU] | norm. RU at 10 µM [5] [RU] | Compound | Kd [1, 6] [µM] | Kd [2, 6] [µM] | Kd [3, 6] [µM] | Kd [4, 6] [µM] | Kd [5, 6] [µM] |
| --- | --- | --- | --- | --- | --- | --- | --- | --- | --- | --- |
| 0.0 | 0.0 | 57.5 | 70.8 | 0.0 | C[C@H](NC(=O)[C@@H](NC(=O)CCCC[C@@H]1SC[C@@H]2NC(=O)N[C@@H]21)[C@@H](C)O)C(=O)N[C@@H](CO)C(=O)N1CCC[C@H]1C(=O)N[C@@H](C)C(=O)N[C@@H](CCCCN)C(=O)N[C@@H](CCC(=O)O)C(=O)N[C@H](C(=O)N[C@@H](CO)C(=O)N[C@@H](Cc1ccccc1)C(=O)O)[C@@H](C)O [GLUT7_10] (Biotin-TASPAKETSF-OH) |  |  |  |  |  |
| 54.7 | 10.9 | 22.7 | 88.1 | 0.0 | CC(C)[C@H](NC(=O)[C@@H](NC(=O)[C@@H](NC(=O)[C@H](CCC(=O)O)NC(=O)[C@H](CCCCN)NC(=O)[C@H](CO)NC(=O)[C@H](CC(N)=O)NC(=O)[C@H](CCCNC(=N)N)NC(=O)[C@H](CCCCN)NC(=O)[C@@H](NC(=O)CCCC[C@@H]1SC[C@@H]2NC(=O)N[C@@H]21)C(C)C)[C@@H](C)O)C(C)C)C(=O)O [MARCH3_10] (Biotin-VKRNSKETVV-OH) |  |  |  |  |  |
|  |  |  |  |  | CC(C)[C@H](NC(=O)[C@H](CCC(=O)O)NC(=O)[C@@H](NC(=O)[C@H](CCC(=O)O)NC(=O)[C@H](CCCNC(=N)N)NC(=O)CNC(=O)[C@H](C)NC(=O)CNC(=O)[C@H](CO)NC(=O)CNC(=O)CCCC[C@@H]1SC[C@@H]2NC(=O)N[C@@H]21)[C@@H](C)O)C(=O)O [TAX1_05] (Biotin-GSGAGRETEV-OH) | 33 | 75 | 96 | 1 | 50 |
| 0.0 | 0.0 | 0.0 | 0.0 | 0.0 | EKPIDSETKM [GLAST_10, long peptide: last ten wild type C-terminal residues of Excitatory amino acid transporter 1, biotinylated] |  |  |  |  |  |
